In US12201608B2, “Methods for treating Parkinson's disease by administering resiniferatoxin” (Sorrento Therapeutics, Inc., priority 2018, dated 2025):
“Also recorded” adds a separate entry of the source.

Tests used:
[1] = system: dopamine and its metabolite levels in the striatum, AAV-A53T mouse model of PD-like pathology; assay: Dopamine and metabolites in ipsilateral and contralateral striatum by HPLC; format: in vivo, C57Bl/6J male mice; conditions: for dopamine levels in striatum: vs AAV-A53T vehicle
Protocol: (§1) For this study, a total of 110 male C57Bl/6J mice two months of age were infused with either AAV-A53T (90 mice) or AAV-Null (20 mice) into substantia nigra unilaterally to induce PD-like pathology or to serve as sham controls, respectively. Mice infused with AAV-Null (empty) vector (“sham-infused” mice) were used in order to control for the effect of the viral infusion. After 7 or 14 days of AAV-A53T mediated disease model induction, the mice were treated with RTX (0.04 μg or 0.125 μg) (5 μL volume, prepared from a 25 μg/ml RTX solution containing Polysorbate 80 at 0.03% w/v, dextrose at 0.05% w/v, Phosphate Buffer at 30 mM, and NaCl 0.54% w/v, pH 7.2, and diluted in saline as needed) by single intrathecal infusion at lumbar spinal cord area. One AAV-Null and AAV-A53T infused group per each time point were treated with vehicle instead of RTX.
(§2) The mice were then treated with RTX or vehicle by intrathecal infusion 7 or 14 days after AAV infusion. The mice were assigned to treatment groups as follows: • Group 1: 10 male mice sham-infused with AAV-null, and administered vehicle at D7. • Group 2: 15 male mice infused with AAV-A53T, and administered vehicle at D7. • Group 3: 15 male mice infused with AAV-A53T, and administered 0.04 μg of RTX at D7. • Group 4: 15 male mice infused with AAV-A53T, and administered 0.125 μg of RTX at D7. • Group 5: 10 male mice sham-infused with AAV-null, and administered vehicle at D14. • Group 6: 15 male mice infused with AAV-A53T, and administered vehicle at D14. • Group 7: 15 male mice infused with AAV-A53T, and administered 0.04 μg of RTX at D14. • Group 8: 15 male mice infused with AAV-A53T, and administered 0.125 μg of RTX at D14.
Body weight of the animals was monitored two times per week. Fine motor kinematic analysis was performed 7 weeks after AAV infusion. 8 weeks post AAV infusion, the mice were euthanized and subjected to tissue sample collection. Dopamine and its metabolites were analyzed from ipsilateral and contralateral striata by high performance liquid chromatography (HPLC).
Ipsi- and contralateral striatum were collected in 1.5 mL Eppendorf tubes, snap-frozen on dry ice (i.e. left and right separately), weighed and stored at −80° C. for HPLC analysis of dopamine and its metabolites.
Dopamine (DA), 3,4-dihydroxyphenylacetic acid (DOPAC) and homovanillic acid (HVA) concentrations in mouse striatal tissue samples were determined by high performance liquid chromatography (HPLC) method with electrochemical detection. After thawing on ice, tissue samples were homogenized (1:10, w/v) in 0.1 M perchloric acid with MSE Soniprep 150 ultrasonic disintegrator (MSE Scientific Instruments, Crawley, UK). Tissue homogenates were centrifuged for 15 min at 15000 g at 4° C. Supernatants were filtered through polypropylene membrane (GHP Acrodisc 13 0.45 μm, Pall Corporation, Ann Arbor, MI, USA) and diluted (1:1) with 0.1 M perchloric acid. The samples were transferred into plastic vials and analyzed immediately.
The ESA HPLC system (ESA Inc., Chelmsford, MA, USA) consists of a 582 solvent delivery system, a DG-1210 vacuum degasser, an 542 autosampler, a 880 thermostatted chamber, an eight-channel CoulArray® 5600 electrochemical array detector equipped with a two-channel 5014B microdialysis cell and a CoulArray® for Windows data acquisition module (version 1.00). The applied potentials are −175 mV (channel 1), +225 mV (channel 2), +350 mV (channel 3) and +450 mV (channel 4). DA and DOPAC are detected on channel 2 and HVA on channel 3. Injection volume is 10 μl.
The analytes were separated on a Zorbax SB-Aq reversed-phase column (2.1×100 mm, 3.5 μm, Agilent Technologies Inc., Little Falls, Wilmington, DE, USA) with a Zorbax SB-Aq precolumn (2.1×12.5 mm, 5 μm) in an isocratic run. The column was maintained at 35° C. The mobile phase was 100 mM monobasic sodium phosphate containing 4.75 mM citric acid monohydrate, 7 mM 1-octanesulfonic acid and 50 μM disodium EDTA-acetonitrile mixture (98:2, v/v). […]

[2] = system: AAV-A53T mouse model of Parkinson's Disease-like (PD) pathology; assay: Fine motor kinematic gait analysis 7 weeks after AAV infusion; format: in vivo, C57Bl/6J male mice; conditions: for overall gait analysis score: vs AAV1/2-A53T Vehicle
Protocol: as §1, §2
The fine motor skills of the mice were evaluated 7 weeks post infusion (MotoRater, TSE Systems, Homburg, Germany) using walking mode. On the day of testing the mice were marked in appropriate points of body, such as joints of limbs and parts of tail to ease the data analysis process. The movement data was captured using a high-speed camera (300 frames/second) from three different dimensions, from below and both sides. Different gait patterns and movements were analyzed using a custom-made automated analysis system. The analyzed parameters include: 1) general gait pattern parameters (stride time and speed, step width, stance and swing time during a stride, interlimb coordination), 2) body posture and balance (toe clearance, iliac crest and hip height, hind limb protraction and retraction, tail position and movement), and 3) fine motor skills (swing speed during a stride, jerk metric during swing phase, angle ranges and deviations of different joints, vertical and horizontal head movement).
The gait parameters always have several (and complex) inter-correlations. For example, a shorter stride duration and longer step lengths lead to higher speed. Different “gait features”, which are manifested in sets of highly correlating parameters, can be identified using Principal Component Analysis (PCA). Principal Component Analysis is a statistical tool to compact the information in a multivariate data set, reveal correlations between original variables, and ultimately, create a small set of new and sensitive uncorrelated parameters, the principal components (PC).
PCA is a linear transformation based on principal component coefficients and eigenvectors. The transformed, new, uncorrelated variables are called the PC scores. The first principal component (PC) corresponds to such linear combination of data which has the largest possible variance. The second PC has again the largest possible variance of what is left when the proportion of the first PC is discarded, and so on for the rest of the PCs. The eigen vectors also reveal information about the internal structure of the data, i.e., mutually correlated parameters. Each PC score represent combined information of all the parameters which are emphasized in the corresponding PC. […]

[3] = high dose, 7 days after AAV-A53T infusion, statistically non-significant (one-way ANOVA)
[4] = D7 both doses, vs AAV-A53T Vehicle, p<0.05 unpaired t-test
[5] = D7 high dose, vs AAV-A53T Vehicle, p<0.05 unpaired t-test

Q: Which “dopamine and its metabolites levels, treatment effect” value ([1]; AAV-A53T vehicle groups vs corresponding RTX groups, striata 8 weeks after model induction) does the source give for `C=C(C)[C@]12C[C@@H](C)[C@@]34O[C@](Cc5ccccc5)(O[C@@H]1[C@@H]3C=C(COC(=O)Cc1ccc(O)c(OC)c1)C[C@]1(O)C(=O)C(C)=C[C@@H]41)O2` [RTX, Resiniferatoxin] here?
A: Its value is “no significant effects of RTX treatment; also recorded: no significant treatment effect”.

Q: And the “dopamine turnover ((DOPAC + HVA) / dopamine)” value ([1]; both doses, 7 and 14 days after AAV-A53T infusion, statistically non-significant (Kruskal-Wallis test))?
A: The value was “minor trend towards even higher turnover rates”.

Q: What about the “DOPAC levels in striatum” value ([1]; groups treated at day 14) of the same compound?
A: The value was “non-significant trend of lower DOPAC levels”.

Q: What about the “HVA levels in striatum” value ([1]; groups treated at day 14) of the same compound?
A: The value was “non-significant trend of lower HVA levels”.

Q: What about the “dopamine levels in striatum” value ([1]; groups treated at day 14) of the same compound?
A: Its value is “non-significant trend of lower dopamine levels”.

Q: What about the “DOPAC levels in striatum” value [1, 3] of the same compound?
A: The value was “minor trend towards higher DOPAC levels”.

Q: And the “HVA level in striatum” value [1, 3]?
A: The value was “minor trend towards higher concentration”.

Q: What about the “dopamine levels in striatum” value [1, 3] of the same compound?
A: The value was “minor trend towards higher dopamine levels”.

Q: And the diagonal gait [2, 4]?
A: Its diagonal gait is “significantly recovered”.

Q: What about the “hip ROM” value [2, 4] of the same compound?
A: The value was “significantly recovered”.

Q: What about the “hind limb stance time” value [2, 5] of the same compound?
A: Its value is “significantly recovered”.

Q: And the “hip ROM deviation” value [2, 5]?
A: The value was “significantly recovered”.

Q: What about the “homolateral and homologous gait” value [2, 5] of the same compound?
A: Its value is “significantly recovered”.

Q: And the minimum knee angle [2, 5]?
A: The minimum knee angle was “significantly recovered”.

Q: And the “single and double support” value [2, 5]?
A: Its value is “significantly recovered”.

Q: And the stride time [2, 5]?
A: The stride time was “significantly recovered”.

Q: And the support diagonal [2, 5]?
A: The support diagonal was “significantly recovered”.

Q: And the support three [2, 5]?
A: The support three was “significantly recovered”.

Q: And the head rotation ([2]; D14 both doses, vs AAV-A53T Vehicle, p<0.05 unpaired t-test)?
A: Its head rotation is “significantly recovered”.

Q: What about the “hip ROM” value ([2]; D14 high dose, vs AAV-A53T Vehicle, p<0.05 unpaired t-test) of the same compound?
A: Its value is “significantly recovered”.

Q: And the “overall gait analysis score” value ([2]; RTX 0.04 μg at D7, Dunnett's test p=0.0063)?
A: Its value is “significant treatment effect; also recorded: significantly improved”.

Q: And the “overall gait analysis score” value ([2]; RTX 0.125 μg at D7, Dunnett's test p=0.0011)?
A: The value was “significant treatment effect; also recorded: significantly improved”.

Q: What about the “overall gait analysis score” value ([2]; both RTX doses at D14, p>0.05 one-way ANOVA) of the same compound?
A: The value was “statistically non-significant trend towards the respective AAV-Null group; also recorded: statistically non-significant trending effect; also recorded: not statistically significant; also recorded: trend towards the AAV1/2-Null group”.

Q: What about the “recovery of motor functions / motor skills” value ([2]; early RTX treatment (D7), analyzed 7 weeks after AAV infusion) of the same compound?
A: The value was “significant rescuing effect; also recorded: dose-dependent recovery of motor functions”.
